Measurements reported in US8614301B2, “Methods of treating cancer using anti CD24 antibodies” (priority 2007, dated 2013).
Residues, ends and D or L forms follow the SMILES beside them. *: point of attachment. Cbz = O=C(OCc1ccccc1)*

B1: SWA11 anti-CD24 monoclonal antibody (antibody, human IgG1, kappa, V domains shown)
V domain 1: SDVHLQESGPDLVKPSQSLSLTCTVTGYSITSGYTWHWIRQFPGNTVEWMGYIQYTGSTRYNPALRGRLSISRDTSKNQFFLQLISVTTADTGTYFCARGTTASFDYWGQGTTLTVAS
V domain 2: DIVMSQSPSSLNVSVGEKVTMRCRSSQSLLYSSDQKNYLTWYQQKPGQSPKLLISWASTRASGVPDRFTGSGSGTDFTLTISSVKAEDLGVYYCQQYFIYPLTFGVGTKLGLKR

Experiments:
HT29 cells = test: Combined anti-CD24 mAb and chemotherapy, methylene-blue viability assay; type: cell-based, human; settings: simultaneous SWA11, 72 hours
Experimental: Experiments were performed in duplicates or repeated twice. The Y axes stand for cell viability quantified via methylene-blue assay.
The killing effect of the anti-CD24 antibodies and the chemotherapies was assessed, in-vitro, using a methylene-blue assay: 2.5×10^3 cells/well were plated onto 96-well in 0.2 ml complete medium. On the morrow the media were refreshed with the addition of the indicated reagents, held in incubation for 72 hours. The cells were washed with PBS and then fixed with a 0.2 mL 4% formaldehyde solution for 2 hours at room temperature. The cells were then washed with PBS, incubated with 0.15 mL ribonuclease A (3 μg/mL) for 30 minutes at room temperature, equilibrated with 0.2 mL sodium borate (0.1M, pH 8.5), and stained with 0.2 mL methylene blue (0.5%) for 10 minutes at room temperature. Finally, the cells were thoroughly washed with tap water and cell-bound dye was eluted with 0.2 mL HCl (0.1M). Color intensity was read in an enzyme-linked immunosorbent assay plate reader at 595 nm. SWA11 served as the anti-CD24 antibody.

CD24 in HT29 cells = target: T1, CD24 in HT29 cells (Homo sapiens, UniProt P25063); test: Western blot of CD24 degradation in mAb-treated cells; type: cell-based; settings: up to 6 hours
T1 construct: endogenous in cells; host or cells: HT29 human colorectal cancer cells (ATCC)
T1 sequence (P25063 27-59 limits assumed): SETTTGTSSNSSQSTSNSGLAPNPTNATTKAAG
Experimental: FIGS. 5A and 5B are photos showing immunodetection on Western blot of CD24 degradation in anti-CD24 mAb treated cancer cells. HT29 (FIG. 5A) and Colo357 (FIG. 5B) cells were exposed to monoclonal anti-CD24 antibody SWA11 for the indicated periods of time, cells harvested and protein extracted. 20 μg of cell proteins from each sample were separated by SDS-PAGE, blotted onto membrane and reacted with anti-CD24 (SWA11 mAb, CD24) or polyclonal anti-actin (1-19, Santa Cruz Biotechnology, Santa Cruz Calif.). Visualization was effected by anti-mouse and anti-goat (respectively) second antibodies. Note the degradation of CD24 apparent already at 2 hours treatment in both cell lines, with no effect on actin levels;
FIG. 6 is a photo showing the lysosomal mediation of CD24 degradation in HT29 cancer cells treated with anti-CD24 mAb. […]
Exponentially growing cells were harvested and protein concentrations were determined using the Bio-Rad protein assay kit (Bio-Rad, Hercules, Calif.). […]
In order to assess whether CD24 proteolysis is involved in the inhibition of CD24-expressing cancer cell growth by anti-CD24 antibodies, protein levels of CD24 and housekeeping gene product actin in mAb-treated and control cells were analyzed by SDS-PAGE and Western blotting with specific antibodies.

[1] = target: T2, human CD24 polypeptide (human) (UniProt P25063); test: cell-based or functional assay
T2 sequence (looked up): T1 sequence (P25063 27-59 limits assumed)

[2] = target: T2, human CD24 polypeptide (human); test: cell-based or functional assay; remark: listed apart in the source

Molecule	cytotoxic effect of chemotherapeutic agent when combined with SWA11 (HT29 cells)	also measured
O=c1[nH]cc(F)c(=O)[nH]1 [5-florouracil]	enhanced the cytotoxic effect	–
COc1cccc2c1C(=O)c1c(O)c3c(c(O)c1C2=O)C[C@@](O)(C(=O)CO)C[C@@H]3O[C@H]1C[C@H](N)[C@H](O)[C@H](C)O1 [Doxorubicin]	enhanced the cytotoxic effect	–
CC(C)C[C@@H](C=O)NC(=O)[C@H](CC(C)C)NC(=O)[C@H](CC(C)C)NC(=O)OCc1ccccc1 [MG132] (Cbz-Leu-Leu-Leu-aldehyde)	–	effect on anti-CD24 mAb induced CD24 degradation (CD24 in HT29 cells; 0.1 mM, proteasomal inhibitor, added prior to mAb): had no effect
O=C1[O][Pt]2([NH][C@@H]3CCCC[C@H]3[NH]2)[O]C1=O [Oxaloplatin]	enhanced the cytotoxic effect	–
CC(=O)O[C@H]1C(=O)[C@@]2(C)[C@H]([C@H](OC(=O)c3ccccc3)[C@]3(O)C[C@H](OC(=O)[C@H](O)[C@@H](NC(=O)c4ccccc4)c4ccccc4)C(C)=C1C3(C)C)[C@]1(OC(C)=O)CO[C@@H]1C[C@@H]2O [Paclitaxel]	enhanced the cytotoxic effect	–
CCN(CC)CCCC(C)Nc1ccnc2cc(Cl)ccc12 (centres unmarked) [chloroquine]	–	effect on anti-CD24 mAb induced decrease in CD24 protein level (CD24 in HT29 cells; 0.5 mM, lysosomal inhibitor, added 2 hours before mAb): prevented the decrease in CD24 protein level
SWA11-ZZ-PE38 immunoconjugate	–	cytotoxity (LD50) [1]: 32 ng/mL
B1	–	growth inhibition (cell viability, methylene blue) [2]: < 90%
